According to PMC8247900 (Clinical Pharmacology and Therapeutics, 2021):

Experiments:
[1] = type: in vivo, human
[2] = test system: CYP2C9 mRNA; assay: Induction of CYP mRNA expression in HepaRG cells; type: cell-based, human; settings: 5‐F control HepaRG cells, 72 hours; 300 µM 4‐MAA, 1 µM CITCO, 10 µM rifampicin
[3] = test system: CYP3A4 mRNA
[4] = test system: CYP2C19 mRNA; assay: Induction of CYP mRNA expression in HepaRG cells; type: cell-based, human; settings: 72 hours, 300 µM 4‐MAA, 10 µM rifampicin; for CYP2C19 mRNA induction in 5‐F cells: 5‐F control HepaRG cells, 1 µM CITCO
[5] = test system: CYP1A2 mRNA; assay: Induction of CYP mRNA expression in HepaRG cells; type: cell-based, human; settings: 72 hours
[6] = test system: CYP2B6 mRNA; assay: Induction of CYP mRNA expression in HepaRG cells; type: cell-based, human; settings: 72 hours, 300 µM 4‐MAA, 10 µM rifampicin; for CYP2B6 mRNA induction in 5‐F cells: 5‐F control HepaRG cells, 1 µM CITCO
[7] = test system: CYP1A2; type: in vivo, human; settings: male, human, plasma, oral
[8] = test system: CYP3A4; assay: Clinical phenotyping cocktail study: effect of metamizole on CYP3A4; type: in vivo, human; settings: 3 g of metamizole per day for 1 week
[9] = retrospective study, patients treated with metamizole; cited from earlier work
[10] = test system: CYP2B6; settings: healthy volunteers, 1.5 g metamizole per day for 4 days; cited from earlier work
[11] = patients after organ transplantation; cited from earlier work
[12] = molecular target: T1, CYP1A2 (Homo sapiens, UniProt P05177); assay: Clinical phenotyping cocktail study: effect of metamizole on CYP1A2; type: in vivo
T1 sequence (P05177 1-516): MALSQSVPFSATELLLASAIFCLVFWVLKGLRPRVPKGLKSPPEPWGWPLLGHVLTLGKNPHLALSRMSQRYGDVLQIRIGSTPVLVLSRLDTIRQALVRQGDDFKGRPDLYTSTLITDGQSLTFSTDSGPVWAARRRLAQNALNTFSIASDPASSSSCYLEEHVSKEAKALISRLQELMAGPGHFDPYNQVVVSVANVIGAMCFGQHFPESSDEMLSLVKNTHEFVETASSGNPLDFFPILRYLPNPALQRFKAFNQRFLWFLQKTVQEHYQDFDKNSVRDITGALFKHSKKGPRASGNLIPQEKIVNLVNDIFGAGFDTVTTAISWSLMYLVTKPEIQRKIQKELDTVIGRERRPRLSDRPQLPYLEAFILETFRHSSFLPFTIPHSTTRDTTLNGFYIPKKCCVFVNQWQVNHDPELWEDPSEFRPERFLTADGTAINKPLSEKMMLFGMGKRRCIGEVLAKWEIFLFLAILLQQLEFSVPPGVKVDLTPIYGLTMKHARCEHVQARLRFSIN

[13] = test system: CYP2C9; assay: Clinical phenotyping cocktail study: effect of metamizole on CYP2C9; type: in vivo, human; settings: 3 g of metamizole per day for 1 week
[14] = test system: CYP2D6; assay: Clinical phenotyping cocktail study: effect of metamizole on CYP2D6; type: in vivo, human
[15] = test system: CYP2C19; assay: Clinical phenotyping cocktail study: effect of metamizole on CYP2C19; type: in vivo, human; settings: 3 g of metamizole per day for 1 week
[16] = test system: CYP2B6; assay: Clinical phenotyping cocktail study: effect of metamizole on CYP2B6; type: in vivo, human; settings: 3 g of metamizole per day for 1 week
[17] = test system: CYP2D6 mRNA; assay: Induction of CYP mRNA expression in HepaRG cells; type: cell-based, human; settings: differentiated HepaRG cells, 72 hours; 300 µM 4‐MAA; 2 mM metformin
[18] = clinical study, 3 g of metamizole per day for 1 week
[19] = differentiated HepaRG cells, vs DMSO control

CC(C(=O)O)c1ccc(-c2ccc(O)cc2)c(F)c1 (centres unmarked) [4′‐hydroxyflurbiprofen]
AUC(0-inf) ([1]; male, human, plasma, oral): 726 ng·h/mL

Clc1ccc(-c2nc3sccn3c2C=NOCc2ccc(Cl)c(Cl)c2)cc1 [CITCO, 6‐(4‐chlorophenyl)imidazo[2,1‐b][1,3]thiazole‐5‐carbaldehyde O‐(3,4‐dichlorobenzyl)oxime]
CYP2C9 mRNA induction in 5‐F cells [2]: not significant | CYP3A4 mRNA induction in 5‐F cells [3]: not significant | CYP2C19 mRNA induction in 5‐F cells [4]: induced | CYP1A2 mRNA induction in 5‐F cells ([5]; 5‐F control HepaRG cells, 1 µM CITCO): induced | CYP1A2 mRNA induction in HepaRG cells lacking CAR ([5]; CAR‐knockout HepaRG cells, 1 µM CITCO): still induced | CYP2B6 mRNA induction in 5‐F cells [6]: induced

Cn1c(=O)c2c(ncn2C)n(C)c1=O [Caffeine, caffeine]
AUC(0-inf) ([1]; male, human, plasma, oral): 7210 ng·h/mL

O=C1Nc2ccc(Cl)cc2[C@@](C#CC2CC2)(C(F)(F)F)O1 [Efavirenz, efavirenz]
Basal metabolic ratio in CYP2B6 NM ([1]; basal state, CYP2B6 *1/*1 carriers (normal metabolizers, four subjects)): 96.3 | Basal metabolic ratio in CYP2B6 IM ([1]; basal state, CYP2B6 *1/*6 carriers (intermediate metabolizers, eight subjects)): 87.5 | AUC(0-inf) ([1]; male, human, plasma, oral): 3980 ng·h/mL

CC(C(=O)O)c1ccc(-c2ccccc2)c(F)c1 (centres unmarked) [Flurbiprofen, flurbiprofen]
AUC(0-inf) ([1]; male, human, plasma, oral): 10000 ng·h/mL

COCCc1ccc(OCC(O)CNC(C)C)cc1 (centres unmarked) [Metoprolol, metoprolol]
AUC(0-inf) ([1]; male, human, plasma, oral): 41.4 ng·h/mL

Cc1ncc2n1-c1ccc(Cl)cc1C(c1ccccc1F)=NC2 [Midazolam, midazolam]
AUC(0-inf) ([1]; male, human, plasma, oral): 19.7 ng·h/mL | half-life ([1]; male, human, plasma, oral): 2.44 h

COc1ccc2[nH]c([S+]([O-])Cc3ncc(C)c(OC)c3C)nc2c1 (centres unmarked) [Omeprazole, omeprazole]
AUC(0-inf) ([1]; male, human, plasma, oral): 187 ng·h/mL

Cn1c(=O)[nH]c2ncn(C)c2c1=O [Paraxanthine, paraxanthine]
AUC(0-inf) ([1]; male, human, plasma, oral): 4680 ng·h/mL | AUC(0-inf) [7]: 4620 ng·h/mL

Cc1c(N(C)CS(=O)(=O)O)c(=O)n(-c2ccccc2)n1C [metamizole, Metamizole]
effect on CYP3A4 activity [8]: moderate induction | lower sertraline plasma concentrations than patients without metamizole [9]: 67% | increase in the bupropion hydroxylase activity [10]: 2.1 fold | effect on cyclosporine blood concentrations [11]: decreased | effect on CYP1A2 activity [12, 18]: weakly inhibited | change in caffeine:paraxanthine MR ([12]; metamizole 3 × 1 g per day for 7 days, P = 0.0024): significant increase | effect on CYP2C9 activity [13]: weakly induced | effect on CYP2D6 activity [14, 18]: did not alter | change in the MR of metoprolol ([14]; metamizole 3 × 1 g per day for 7 days): no significant change | effect on CYP2C19 activity [15]: moderately | effect on CYP2B6 activity [16]: moderate induction

CN(C)C(=N)N=C(N)N [metformin]
effect on CYP2D6 mRNA [17]: not significantly affected | effect on CYP1A2 mRNA ([5]; differentiated HepaRG cells, 300 µM 4‐MAA, 2 mM metformin): suppressed

CO[C@H]1/C=C/O[C@@]2(C)Oc3c(C)c(O)c4c(O)c(c(/C=N/N5CCN(C)CC5)c(O)c4c3C2=O)NC(=O)/C(C)=C\C=C\[C@H](C)[C@H](O)[C@@H](C)[C@@H](O)[C@@H](C)[C@H](OC(C)=O)[C@@H]1C [rifampicin]
CYP2C19 mRNA induction in 5‐F cells [4]: increased | increase of CYP2C19 mRNA content [4, 19]: 2.2 fold | CYP2B6 mRNA induction in 5‐F cells [6]: not significant | increase of CYP2B6 mRNA content [6, 19]: 4.3 fold
